Results: PubChem BioAssay (NCI)
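In this assay, cells in 96-well plates receive the compound at five concentrations for 48 hours. Endpoints are linearly interpolated between the surrounding concentrations. Abbreviation: GI50, concentration required for 50% inhibition of growth. TGI: concentration producing complete growth inhibition.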

What was measured:
Test in all cases: growth of human tumour cells (NCI), 48 h
HCT-15 colon = test system: HCT-15 colon
CAKI-1 renal = test system: CAKI-1 renal
PC-3 prostate = test system: PC-3 prostate
EKVX NSCLC = test system: EKVX NSCLC
NCI-H522 lung = test system: NCI-H522 lung
MCF7 breast = test system: MCF7 breast
M14 melanoma = test system: M14 melanoma
IGROV1 ovarian = test system: IGROV1 ovarian
786-0 renal = test system: 786-0 renal
SNB-19 CNS = test system: SNB-19 CNS
A498 renal = test system: A498 renal
KM12 colon = test system: KM12 colon
UACC-257 melanoma = test system: UACC-257 melanoma
HOP-92 NSCLC = test system: HOP-92 NSCLC
UO-31 renal = test system: UO-31 renal
OVCAR-5 ovarian = test system: OVCAR-5 ovarian
HOP-62 NSCLC = test system: HOP-62 NSCLC
OVCAR-3 ovarian = test system: OVCAR-3 ovarian
SNB-75 CNS = test system: SNB-75 CNS
DU-145 prostate = test system: DU-145 prostate
K-562 leukemia = test system: K-562 leukemia
HT29 colon = test system: HT29 colon
SF-539 CNS = test system: SF-539 CNS
NCI/ADR-RES ovarian = test system: NCI/ADR-RES ovarian
UACC-62 melanoma = test system: UACC-62 melanoma
SW-620 colon = test system: SW-620 colon
COLO 205 colon = test system: COLO 205 colon
NCI-H226 lung = test system: NCI-H226 lung
ACHN renal = test system: ACHN renal
MDA-MB-231 breast = test system: MDA-MB-231 breast
HCT-116 colon = test system: HCT-116 colon
RXF 393 renal = test system: RXF 393 renal
SK-MEL-28 melanoma = test system: SK-MEL-28 melanoma
MOLT-4 leukemia = test system: MOLT-4 leukemia
TK-10 renal = test system: TK-10 renal
MDA-MB-435 = test system: MDA-MB-435
SK-OV-3 ovarian = test system: SK-OV-3 ovarian
U251 CNS = test system: U251 CNS
A549 NSCLC = test system: A549 NSCLC
HS 578T breast = test system: HS 578T breast
HCC-2998 colon = test system: HCC-2998 colon
OVCAR-8 ovarian = test system: OVCAR-8 ovarian
BT-549 breast = test system: BT-549 breast
SF-268 CNS = test system: SF-268 CNS
T-47D breast = test system: T-47D breast
SK-MEL-2 melanoma = test system: SK-MEL-2 melanoma
SR leukemia = test system: SR leukemia
SN12C renal = test system: SN12C renal
RPMI-8226 leukemia = test system: RPMI-8226 leukemia
HL-60(TB) leukemia = test system: HL-60(TB) leukemia
LOX IMVI melanoma = test system: LOX IMVI melanoma
OVCAR-4 ovarian = test system: OVCAR-4 ovarian
SF-295 CNS = test system: SF-295 CNS
NCI-H23 lung = test system: NCI-H23 lung
NCI-H460 lung = test system: NCI-H460 lung
SK-MEL-5 melanoma = test system: SK-MEL-5 melanoma
CCRF-CEM leukemia = test system: CCRF-CEM leukemia
MALME-3M melanoma = test system: MALME-3M melanoma

## CC(Oc1ccc(Cl)cc1Cl)C(=O)NN1C(=O)CSC1c1ccc(Cl)cc1 (stereo not drawn)
HCT-15 colon
  TGI: > 100000 nM
CAKI-1 renal
  TGI: 34200 nM
PC-3 prostate
  TGI: > 100000 nM
EKVX NSCLC
  TGI: > 100000 nM
NCI-H522 lung
  TGI: > 100000 nM
MCF7 breast
  TGI: > 100000 nM
M14 melanoma
  TGI: > 100000 nM
IGROV1 ovarian
  TGI: > 100000 nM
786-0 renal
  TGI: > 100000 nM
SNB-19 CNS
  TGI: > 100000 nM
A498 renal
  TGI: 80000 nM
KM12 colon
  TGI: > 100000 nM
UACC-257 melanoma
  TGI: > 100000 nM
HOP-92 NSCLC
  TGI: 66300 nM
UO-31 renal
  TGI: > 100000 nM
OVCAR-5 ovarian
  TGI: > 100000 nM
HOP-62 NSCLC
  TGI: > 100000 nM
OVCAR-3 ovarian
  TGI: > 100000 nM
SNB-75 CNS
  TGI: 72700 nM
DU-145 prostate
  TGI: > 100000 nM
K-562 leukemia
  TGI: > 100000 nM
HT29 colon
  TGI: > 100000 nM
SF-539 CNS
  TGI: 43900 nM
NCI/ADR-RES ovarian
  TGI: > 100000 nM
UACC-62 melanoma
  TGI: > 100000 nM
SW-620 colon
  TGI: > 100000 nM
COLO 205 colon
  TGI: > 100000 nM
NCI-H226 lung
  TGI: 39200 nM
ACHN renal
  TGI: > 100000 nM
MDA-MB-231 breast
  TGI: 97400 nM
HCT-116 colon
  TGI: > 100000 nM
RXF 393 renal
  TGI: 83400 nM
SK-MEL-28 melanoma
  TGI: > 100000 nM
MOLT-4 leukemia
  TGI: 80100 nM
TK-10 renal
  TGI: > 100000 nM
MDA-MB-435
  TGI: > 100000 nM
SK-OV-3 ovarian
  TGI: > 100000 nM
U251 CNS
  TGI: > 100000 nM
A549 NSCLC
  TGI: > 100000 nM
HS 578T breast
  TGI: > 100000 nM
HCC-2998 colon
  TGI: > 100000 nM
OVCAR-8 ovarian
  TGI: > 100000 nM
BT-549 breast
  TGI: > 100000 nM
SF-268 CNS
  TGI: > 100000 nM
T-47D breast
  TGI: > 100000 nM
SK-MEL-2 melanoma
  TGI: > 100000 nM
SR leukemia
  TGI: 41300 nM
SN12C renal
  TGI: 37800 nM
RPMI-8226 leukemia
  TGI: > 100000 nM
HL-60(TB) leukemia
  TGI: 84700 nM
LOX IMVI melanoma
  TGI: > 100000 nM
OVCAR-4 ovarian
  TGI: > 100000 nM
SF-295 CNS
  TGI: > 100000 nM
NCI-H23 lung
  TGI: > 100000 nM
NCI-H460 lung
  TGI: > 100000 nM
SK-MEL-5 melanoma
  TGI: > 100000 nM

## COc1ccc(Nc2ccnc(NCCCNc3ccnc4cc(Cl)ccc34)n2)cc1
HCT-15 colon
  GI50: 397 nM
  TGI: 1760 nM
CAKI-1 renal
  GI50: 1150 nM
  TGI: 2410 nM
PC-3 prostate
  GI50: 1630 nM
  TGI: 11200 nM
NCI-H522 lung
  GI50: 1620 nM
  TGI: 3670 nM
MCF7 breast
  GI50: 599 nM
  TGI: 2420 nM
M14 melanoma
  GI50: 196 nM
  TGI: 461 nM
IGROV1 ovarian
  GI50: 1480 nM
  TGI: 4140 nM
786-0 renal
  GI50: 1490 nM
  TGI: 2930 nM
SNB-19 CNS
  GI50: 2610 nM
  TGI: 10100 nM
A498 renal
  GI50: 659 nM
  TGI: 2540 nM
KM12 colon
  GI50: 1670 nM
  TGI: 3730 nM
UACC-257 melanoma
  GI50: 1330 nM
  TGI: 2750 nM
HOP-92 NSCLC
  GI50: 632 nM
  TGI: 2650 nM
UO-31 renal
  GI50: 879 nM
  TGI: 2180 nM
CCRF-CEM leukemia
  GI50: 340 nM
  TGI: 1800 nM
OVCAR-5 ovarian
  GI50: 1160 nM
  TGI: 3730 nM
HOP-62 NSCLC
  GI50: 1610 nM
  TGI: 4440 nM
OVCAR-3 ovarian
  GI50: 1560 nM
  TGI: 3240 nM
SNB-75 CNS
  GI50: 903 nM
  TGI: 2140 nM
DU-145 prostate
  GI50: 2600 nM
  TGI: 10700 nM
HT29 colon
  GI50: 393 nM
  TGI: 2200 nM
SF-539 CNS
  GI50: 169 nM
  TGI: 352 nM
NCI/ADR-RES ovarian
  GI50: 2780 nM
  TGI: 10400 nM
UACC-62 melanoma
  GI50: 1400 nM
  TGI: 2960 nM
SW-620 colon
  GI50: 1070 nM
  TGI: 2560 nM
COLO 205 colon
  GI50: 1210 nM
  TGI: 2650 nM
NCI-H226 lung
  GI50: 1920 nM
  TGI: 4550 nM
MALME-3M melanoma
  GI50: 1360 nM
  TGI: 3080 nM
ACHN renal
  GI50: 1180 nM
  TGI: 2420 nM
MDA-MB-231 breast
  GI50: 583 nM
  TGI: 2150 nM
HCT-116 colon
  GI50: 374 nM
  TGI: 1540 nM
RXF 393 renal
  GI50: 897 nM
  TGI: 2300 nM
SK-MEL-28 melanoma
  GI50: 434 nM
  TGI: 1660 nM
MOLT-4 leukemia
  GI50: 1450 nM
  TGI: 7220 nM
TK-10 renal
  GI50: 1540 nM
  TGI: 3170 nM
MDA-MB-435
  GI50: 243 nM
  TGI: 705 nM
SK-OV-3 ovarian
  GI50: 1680 nM
  TGI: 3180 nM
U251 CNS
  GI50: 590 nM
  TGI: 1890 nM
A549 NSCLC
  GI50: 1550 nM
  TGI: 3660 nM
HS 578T breast
  GI50: 1460 nM
  TGI: 3830 nM
HCC-2998 colon
  GI50: 1010 nM
  TGI: 2610 nM
OVCAR-8 ovarian
  GI50: 1500 nM
  TGI: 5160 nM
BT-549 breast
  GI50: 1650 nM
  TGI: 3940 nM
SF-268 CNS
  GI50: 1520 nM
  TGI: 3770 nM
T-47D breast
  GI50: 1550 nM
  TGI: 3710 nM
SK-MEL-2 melanoma
  GI50: 1610 nM
  TGI: 3210 nM
SR leukemia
  GI50: 254 nM
  TGI: 912 nM
SN12C renal
  GI50: 1590 nM
  TGI: 8940 nM
RPMI-8226 leukemia
  GI50: 891 nM
  TGI: 3230 nM
HL-60(TB) leukemia
  GI50: 1590 nM
  TGI: 4100 nM
LOX IMVI melanoma
  GI50: 322 nM
  TGI: 1270 nM
OVCAR-4 ovarian
  GI50: 1350 nM
  TGI: 6220 nM
SF-295 CNS
  GI50: 1120 nM
  TGI: 2360 nM
NCI-H23 lung
  GI50: 2430 nM
  TGI: 8500 nM
NCI-H460 lung
  GI50: 1270 nM
  TGI: 2850 nM
SK-MEL-5 melanoma
  GI50: 387 nM
  TGI: 1460 nM
